Test results published in patent US7902181B2, “Compounds 010” (AstraZeneca AB, priority 2007, dated 2011).
Where a name gives a salt, the structure may show the parent alone.

biological target: Recombinant Human (rh) DPP1 (Homo sapiens, UniProt P53634); test: Fluorescence Assay for Recombinant Human (rh) DPP1; format: biochemical; conditions: rhDPP1; substrate H-Gly-Arg-AMC; pH5.0; 30 min pre-incubation, 60 min reaction at 22° C.; highest concentration 10 μM; read-out: DPP1 activity, pIC50 (converted)
How it was run: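 Release of AMC from 100 μM H-Gly-Arg-AMC by rhDPP1 ([…]) in 25 mM piperazine pH 5.0, 50 mM NaCl, 5 mM DTT, 0.01% Triton X-100, 1% DMSO, 22 °C. Inhibitors (12-point half-log, top 10 μM) preincubated 30 min, reaction 60 min, fluorescence at 350/450 nm; pIC50 from 4-parameter logistic fit.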

Chain of Recombinant Human (rh) DPP1 (P53634 25-463): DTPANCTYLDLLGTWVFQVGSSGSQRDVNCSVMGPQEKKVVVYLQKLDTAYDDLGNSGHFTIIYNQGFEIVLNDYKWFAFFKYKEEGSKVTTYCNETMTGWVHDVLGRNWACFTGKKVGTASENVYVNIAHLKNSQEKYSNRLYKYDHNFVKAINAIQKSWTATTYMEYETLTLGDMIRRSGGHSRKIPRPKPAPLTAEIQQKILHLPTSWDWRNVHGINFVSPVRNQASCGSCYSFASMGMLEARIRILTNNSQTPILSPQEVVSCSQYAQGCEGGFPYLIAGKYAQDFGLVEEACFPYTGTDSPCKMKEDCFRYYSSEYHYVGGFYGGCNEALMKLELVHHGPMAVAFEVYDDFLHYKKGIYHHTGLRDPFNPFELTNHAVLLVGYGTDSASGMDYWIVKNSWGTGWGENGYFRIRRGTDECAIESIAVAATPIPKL

Row | IC50 [nM] | SMILES
1 | 20 | CCCS(=O)(=O)c1cc(-c2ccc(C[C@@H](C#N)NC(=O)[C@@H]3CCCCN3)cc2)ccc1C#N [Example 60, (S)-N-((S)-1-Cyano-2-(4′-cyano-3′-(propylsulfonyl)biphenyl-4-yl)ethyl)piperidine-2-carboxamide]
2 | 10 | N#C[C@H](Cc1ccc(-c2ccc(S(=O)(=O)NCCO)cc2)cc1)NC(=O)[C@@H]1CCCCN1 [Example 73, (S)-N-((S)-1-Cyano-2-(4′-(N-(2-hydroxyethyl)sulfamoyl)biphenyl-4-yl)ethyl)piperidine-2-carboxamide]
3 | 158 | N#C[C@H](Cc1ccc(-c2cccc(CN3CCOCC3)c2)cc1)NC(=O)[C@@H]1CCCCN1 [Example 109, (S)-N-((S)-1-Cyano-2-(3′-(morpholinomethyl)biphenyl-4-yl)ethyl)piperidine-2-carboxamide Ditrifluoroacetate]
4 | 316 | CCCOc1ccc(-c2ccc(C[C@@H](C#N)NC(=O)[C@@H]3CCCCN3)cc2)cc1F [Example 39, (2S)-N-[(1S)-1-Cyano-2-[4-(3-fluoro-4-propoxy-phenyl)phenyl]ethyl]pipe-ridine-2-carboxamide trifluoroacetate]
5 | 20 | N#C[C@H](Cc1ccc(-c2ccc(OC(F)(F)F)cc2)cc1)NC(=O)[C@@H]1CCCCN1 [Example 105, (S)-N-((S)-1-Cyano-2-(4′-(trifluoromethoxy)biphenyl-4-yl)ethyl)piperidine-2-carboxamide]
6 | 794 | N#C[C@H](Cc1ccc(-c2cccc(CO)c2)cc1)NC(=O)[C@@H]1CCCCN1 [Example 45, (2S)-N-[(1S)-1-Cyano-2-[4-[3-(hydroxymethyl)phenyl]phenyl]ethyl]piperidine-2-carboxamide trifluoroacetate]
7 | 79.4 | N#C[C@H](Cc1ccc(-c2cccc(CN3CCCCC3)c2)cc1)NC(=O)[C@@H]1CCCCN1 [Example 2, (S)-N-((S)-1-Cyano-2-(3′-(piperidin-1-ylmethyl)biphenyl-4-yl)ethyl)piperidine-2-carboxamide di-trifluoroacetate]
8 | 79.4 | N#C[C@@]1(NC(=O)[C@@H]2CCCCN2)C[C@@H]1c1ccc(-c2ccc(S(=O)(=O)N3CCC3)cc2)cc1 [Example 104, (S)-N-((1R,2R)-2-(4′-(Azetidin-1-ylsulfonyl)biphenyl-4-yl)-1-cyanocyclopropyl)piperidine-2-carboxamide Trifluoroacetate]
9 | 7.94 | CSc1ccc(-c2ccc(C[C@@H](C#N)NC(=O)[C@@H]3CCCCN3)cc2)cc1C#N [Example 63, (S)-N-((S)-1-cyano-2-(3′-cyano-4′-(methylthio)biphenyl-4-yl)ethyl)piperidine-2-carboxamide]
10 | 200 | N#C[C@H](Cc1ccc(-c2ccc(C(=O)N3CCCC3)cc2)cc1)NC(=O)[C@@H]1CCCCN1 [Example 75, (S)-N-((S)-1-Cyano-2-(4′-(pyrrolidine-1-carbonyl)biphenyl-4-yl)ethyl)piperidine-2-carboxamide Trifluoroacetate]
11 | 63.1 | N#Cc1cccc(-c2ccc(C[C@@H](C#N)NC(=O)[C@@H]3CCCCN3)cc2)c1 [Example 6, (S)-N-((S)-1-Cyano-2-(3′-cyanobiphenyl-4-yl)ethyl)piperidine-2-carboxamide Trifluoroacetate]
12 | 50.1 | CN(C)S(=O)(=O)c1cccc(-c2ccc(C[C@@H](C#N)NC(=O)[C@@H]3CCCCN3)cc2)c1 [Example 87, (S)-N-((S)-1-Cyano-2-(3′-(N,N-dimethylsulfamoyl)biphenyl-4-yl)ethyl)piperidine-2-carboxamide Trifluoroacetate]
13 | 3160 | N#C[C@H](Cc1ccc(S(=O)(=O)c2ccccc2)cc1)NC(=O)[C@@H]1CCCCN1 [Example 102, (S)-N-((S)-1-Cyano-2-(4-(phenylsulfonyl)phenyl)ethyl)piperidine-2-carboxamide]
